As a reminder, the IC50 is the midpoint of a concentration-inhibition curve. As usually defined, the clearance is the volume of plasma or blood freed of the substance per unit of time.

A short description of series [1]: Stability of stock solutions and working standard solutions. Type of series: physicochemical. The conditions noted are these: for Mean recovery: n = 8, ± SD. As for the experimental part: The stability of the stock solutions (1 mg/mL of each analyte and ISs) was evaluated after 30 days of storage in a refrigerator (4°C, amber bottles). The stored solutions were diluted with acetonitrile/water (70:30 v/v) to obtain the same concentration levels as the short-term stability assay. The stability of the stock solutions was evaluated by comparing the mean recovery of the analytes and IS obtained from stored samples to the mean values obtained with freshly prepared samples, at the same concentration levels. The stability of the working standard solutions was assessed using a procedure similar to that described for stock solution stability. […]

A short description of series [2]: Stability in human plasma: short-term, freeze-thaw and long-term. Type of series: in vitro ADME. The conditions noted are these: for Mean recovery: n = 8, ± SD. As for the experimental part:
The samples were vortexed for 2 min and then were kept at room temperature for 8 h. Afterward, the samples were spiked with 50 μL of IS solution and were vortexed (2 min) and submitted to the extraction procedures. The short-term stability was evaluated by comparing the mean recovery of the analytes and the IS obtained from stored samples with the mean values obtained with freshly prepared samples, at same concentration levels.
(§1) Freeze-thawed, post-preparative and long-term stability assay samples were prepared and evaluated similar to the short-term stability samples. However, the freeze thawing assay was assessed after undergoing three freeze-thaw cycles (one freeze-thaw cycle per day on three consecutive days) and post-preparative assay, maintaining the extracted samples for 24 hours in the Sample Manager (20°C, transparent vials). The long-term stability of human plasma stored at -40°C was assessed at the end of the study (60 days).

Series [3] deals with synthesis of nitric oxide. The arrangement: method as in PMID 21211951. The conditions noted are these: LPS-induced RAW264.7 macrophages; read-out: IC50, inhibition of the synthesis of nitric oxide; cited from earlier work.
The test system of series [4] is carrageenan-induced paw edema. The arrangement: method as in PMID 21211951. Conditions: mice, 50 mg/kg, 5 h after the induction of inflammation; cited from earlier work.
Series [5] relates to endothelium-intact or denuded rat aortic rings. The arrangement: method as in PMID 15178370, PMID 11864765. Conditions: cited from earlier work.
Series [6] can be described thus: Initial screening of bioavailability: 60 mL of guaco syrup orally. It is filed as in vivo, human. Conditions: 60 mL guaco syrup (17.6 mg COU, 1.1 mg OCA, 8.9 mg KAU), up to 600 min. As to the method: All the volunteers fasted for 8 h prior to the administration of guaco syrup and blood collection. […] The anticoagulant used was tetrasodium edetate. […] The pharmacokinetic analysis was performed using a non-compartmental model, considering an extravascular administration route and using WinNonlin Professional software, version 5.3. The relationships among the areas under the curves (r areas = AUC0-t/AUC0-inf), were used to confirm the suitability of the experimental design.

The test system of series [7] is release of prostaglandin E2. On the set-up: method as in PMID 21211951. Conditions: LPS-induced RAW264.7 macrophages; cited from earlier work.
In series [8] the target is cyclooxygenase-2. The arrangement: method as in PMID 21211951. Conditions: LPS-induced RAW264.7 macrophages; cited from earlier work.
A short description of series [9]: Post-preparative stability of extracted samples. It is filed as physicochemical. The conditions noted are these: for Mean recovery: n = 8, ± SD. As for the experimental part: as §1
On the set-up of series [10]: method as in PMID 7150456. The conditions noted are these: cited from earlier work.
Where [11] appears, read: 8 h at room temperature, internal standard level (6-methylcoumarin 500.0, Isoferulic acid 1000.0, Prednisone 500.0 ng/mL).
[12] abbreviates: 8 h at room temperature, internal standard level, stored vs freshly prepared.
[13] abbreviates: 30 days at 4 °C (stock solutions), internal standard level (500.0, 1000.0, 500.0 ng/mL).
The mark [14] stands for this setting: Short-term, internal standard level.
Where [15] appears, read: Short-term, internal standard level (500.0, 1000.0, 500.0 ng/mL).
The mark [16] stands for this setting: post-preparative, internal standard level.
Setting [17] is: post-preparative, internal standard level (500.0, 1000.0, 500.0 ng/mL).
Where [18] appears, read: 30 days at 4 °C, internal standard level.

Regarding `C=C1C[C@@]23CC[C@H]4[C@@](C)(CCC[C@@]4(C)C(=O)O)[C@@H]2CC[C@@H]1C3` [KAU, kaurenoic acid], the Mean recovery in [1] (8 h at room temperature, high level (Coumarin 1250.0, 7-hydroxycoumarin 750.0, o-coumaric acid 750.0, Kaurenoic acid 500.0 ng/mL)) is 516.6 ± 5.1 ng/mL; in series [1] (8 h at room temperature, low level (Coumarin 50.0, 7-hydroxycoumarin 12.5, o-coumaric acid 25.0, Kaurenoic acid 10.0 ng/mL)), 10.2 ± 0.7 ng/mL; in series [1] (30 days at 4 °C (stock solutions), high level (1250.0, 750.0, 750.0, 500.0 ng/mL)) it was 487.8 ± 34.9 ng/mL; in series [1] (30 days at 4 °C (stock solutions), low level (50.0, 12.5, 25.0, 10.0 ng/mL)), 9.75 ± 0.6 ng/mL; in series [2] (Long-term: plasma at -40°C, 60 days, high level (1250.0, 750.0, 750.0, 500.0 ng/mL)), 463.2 ± 12.3 ng/mL; in [2] (Long-term: plasma at -40°C, 60 days, low level (50.0, 12.5, 25.0, 10.0 ng/mL)), 8.8 ± 0.3 ng/mL. The Mean recovery in series [2] (Short-term: plasma at room temperature for 8 h, high level (1250.0, 750.0, 750.0, 500.0 ng/mL)) came to 498.9 ± 7.6 ng/mL; in [2] (Short-term: plasma at room temperature for 8 h, low level (50.0, 12.5, 25.0, 10.0 ng/mL)) it was 10.0 ± 0.3 ng/mL; in series [2] (three freeze–thaw cycles, plasma, high level (1250.0, 750.0, 750.0, 500.0 ng/mL)), 502.5 ± 6.1 ng/mL; in series [2] (three freeze–thaw cycles, plasma, low level (50.0, 12.5, 25.0, 10.0 ng/mL)), 9.9 ± 0.4 ng/mL; in series [9] (post-preparative: extracted samples 24 hours at 20°C, high level (1250.0, 750.0, 750.0, 500.0 ng/mL)) it was 509.8 ± 6.6 ng/mL; in [9] (post-preparative: extracted samples 24 hours at 20°C, low level (50.0, 12.5, 25.0, 10.0 ng/mL)) it was 9.8 ± 0.4 ng/mL. The RE in series [1] (8 h at room temperature, high level, stored vs freshly prepared) is given as 3.33%; in series [1] (8 h at room temperature, low level, stored vs freshly prepared) it was 8.94%; in [1] (30 days at 4 °C, high level), 3.33%; in series [1] (30 days at 4 °C, low level), -2.46%; in series [2] (Long-term, high level) it was -7.36%; in series [2] (Long-term, low level) it was -11.70%. For the same compound, the RE is -0.22% in [2] (Short-term, high level); 0.23% in series [2] (Short-term, low level); 0.49% in [2] (freeze–thaw cycles, high level); -0.41% in series [2] (freeze–thaw cycles, low level); 1.96% in series [9] (post-preparative, high level); -1.70% in series [9] (post-preparative, low level). The results for the IC50 in series [3] and in series [7] were 51.7 µM and 106 µM, respectively. For the same compound, the “reduction of the swelling” value in series [4] is 34.4%. Also, in series [5] (endothelium-intact or denuded rings), the “concentration promoting vasodilatory effects in rat aortas” value is recorded as “greater than 10 mM”. Besides, in series [5] (rat aortic rings pre-contracted with phenylephrine and potassium chloride), the “concentration with concentration-dependent activity on vascular smooth muscle” value was not below 10 µM. Also, the “plasma levels after guaco syrup without spiking” value in series [6] is “did not provide sufficient levels”. The “IC50, expression of cyclooxygenase-2 activity” value in [8] was 3.5 µg/mL.

`C[C@]12C=CC(=O)C=C1CC[C@@H]1[C@@H]2C(=O)C[C@@]2(C)[C@H]1CC[C@]2(O)C(=O)CO` [Prednisone, prednisone, reference compound]: the Mean recovery in series [1] (setting [11]) stood at 470.5 ± 26.6 ng/mL; in series [1] (setting [13]), 497.0 ± 13.9 ng/mL; in [2] (setting [15]) it was 502.2 ± 11.1 ng/mL; in series [9] (setting [17]), 479.3 ± 16.9 ng/mL. Also, the RE in series [1] (setting [12]) is recorded as -5.90%; in [2] (setting [14]), 0.43%; in series [9] (setting [16]), -4.14%.

On to `Cc1ccc2oc(=O)ccc2c1` [6-methylcoumarin, reference compound], for which the Mean recovery in [1] (setting [11]) is listed as 497.3 ± 3.8 ng/mL; in series [1] (setting [13]), 480.6 ± 46.6 ng/mL; in series [2] (setting [15]) it was 501.1 ± 1.6 ng/mL; in series [9] (setting [17]), 468.1 ± 22.6 ng/mL. Besides, the RE is -0.54% in [1] (setting [12]), -3.89% in [1] (setting [18]), 0.45% in series [2] (setting [14]) and -6.38% in [9] (setting [16]).

`COc1ccc(/C=C/C(=O)O)cc1O` [Isoferulic acid, isoferulic acid, reference compound]: the Mean recovery in [1] (setting [11]) amounted to 950.0 ± 75.2 ng/mL; in series [1] (setting [13]), 1037.5 ± 68.1 ng/mL; in series [2] (setting [15]) it was 999.3 ± 62.2 ng/mL; in series [9] (setting [17]), 986.5 ± 31.7 ng/mL. The RE was -5.00% in series [1] (setting [12]), 3.75% in [1] (setting [18]), -0.07% in [2] (setting [14]) and -1.35% in series [9] (setting [16]).

In the case of `Cn1c(=O)c2[nH]cnc2n(C)c1=O` [theophylline], the clearance in [10] is on record as 2.8 L/h.

Source of the values: publication PMC4355590, “A Kinetic Study of the Main Guaco Metabolites Using Syrup Formulation and the Identification of an Alternative Route of Coumarin Metabolism in Humans” (PLoS ONE, 2015).
